Measured values as given in publication PMC4116524, “A virtual screen identified C96 as a novel inhibitor of phosphatidylinositol 3-kinase that displays potent preclinical activity against multiple myeloma in vitro and in vivo” (Oncotarget, 2014).
Several values for one entry are separate records, joined by “and”; a condition that tells them apart may be missing. Identical values can stand only once.

Legend:
[1] = molecular target: T1, PI3Kβ (Homo sapiens, UniProt P42338); experiment: Kinase activity in cell-free assay (HotSpot); type: biochemical
T1 construct: purchased Reaction Biology Corp
Procedure: (§1) Kinase activity in the presence of C96 was performed by using the HotSpot technology (Reaction Biology Corp., Malvern, PA, USA). Briefly, kinases (PI3Kα, β, δ, γ, AKT1, 2, 3, and mTOR) and substrates were diluted in reaction buffer. Subsequently, 5 nL of serially diluted C96 (in pure DMSO) was delivered into diluted kinase and substrate mixture by using Echo 550 (LabCyte Inc. Sunnyvale, CA). The reaction was started by adding ^33P-ATP (hot ATP) into the reaction mixture (the final concentration was 10 μM) and stopped after 2 hrs incubation at room temperature. The un-reacted hot ATP was washed away before detection.

[2] = molecular target: T2, mTOR (Homo sapiens, UniProt P42345); experiment: Kinase activity in cell-free assay (HotSpot); type: biochemical
T2 construct: purchased Reaction Biology Corp
Procedure: as §1

[3] = molecular target: T3, PI3Kγ (Homo sapiens, UniProt P48736); experiment: Kinase activity in cell-free assay (HotSpot); type: biochemical
T3 construct: purchased Reaction Biology Corp
Procedure: as §1

[4] = molecular target: T4, AKT1 (Homo sapiens, UniProt P31749); experiment: Kinase activity in cell-free assay (HotSpot); type: biochemical
T4 construct: purchased Reaction Biology Corp
Procedure: as §1

[5] = molecular target: T5, PI3Kα (Homo sapiens, UniProt P42336); experiment: Kinase activity in cell-free assay (HotSpot); type: biochemical
T5 construct: purchased Reaction Biology Corp
Procedure: as §1

[6] = molecular target: T6, AKT3 (Homo sapiens, UniProt Q9Y243); experiment: Kinase activity in cell-free assay (HotSpot); type: biochemical
T6 construct: purchased Reaction Biology Corp
Procedure: as §1

[7] = molecular target: T7, PI3Kδ (Homo sapiens, UniProt O00329); experiment: Kinase activity in cell-free assay (HotSpot); type: biochemical
T7 construct: purchased Reaction Biology Corp
Procedure: as §1

[8] = molecular target: T8, AKT2 (Homo sapiens, UniProt P31751); experiment: Kinase activity in cell-free assay (HotSpot); type: biochemical
T8 construct: purchased Reaction Biology Corp
Procedure: as §1

[9] = test system: OPM2 cells; experiment: Flow cytometric analysis of apoptosis (Annexin V-FITC/PI); type: cell-based; settings: OPM2, C96 10 μM, 24 hrs; two quadrant values
Procedure: (§2) MM cells treaded with C96 at concentrations from 0 to 20 μM, 24 hrs later, cells were stained with Annexin V-FITC and PI according to the manufacturer's instruction (Sigma, St Louis, MO). Apoptotic cells were measured on a flow cytometer (FACSCalibur, Becton Dickinson) as reported as previously.

[10] = test system: KMS11 cells; experiment: as above; type: cell-based; settings: KMS11, C96 10 μM, 24 hrs; two quadrant values
Procedure: as §2

[11] = test system: RPMI-8226 (8226) cells; experiment: as above; type: cell-based; settings: 8226, C96 10 μM, 24 hrs; two quadrant values
Procedure: as §2

[12] = test system: LP1, OPM2 and JJN3 cells; experiment: MM cell growth after starvation/IGF-1 stimulation (MTT); type: cell-based; settings: 0.5% FBS 12 hrs, IGF-1 100 ng/mL, 24 hrs
From the text: Next, we evaluated the effects of C96 on MM cell growth by measuring viable cells after starvation/IGF-1 stimulation in the presence of C96. As shown in Supplemental Figure 2A, IGF-1 stimulated MM cell growth, but it was suppressed by C96. We also examined the effects of C96 on MM cell migration upon IGF-1 stimulation.
MM cells were dispensed in 96-well plates at a density of 8×10^3 cells per well and treated with increasing concentrations of C96 for 72 hrs, and the growth inhibitory effect of C96 on MM cells was assessed by an MTT assay as reported previously. To show the effect of C96 on cell growth in the presence of growth factor IGF-1, MM cells were first maintained in IMDM media containing 0.5% FBS for 12 hrs, followed by C96 treatment alone or in combination with 100 ng/mL of IGF-1. Cells were then incubated for another 24 hrs, relative cell proliferation was analyzed by an MTT assay.
Supplementary Figure S2: C96 inhibits MM cell proliferation and migration in the presence of IGF-1. […] Cells were then incubated for another 24 hr, cell number was analyzed using MTT staining. […] Cells were loaded onto the upper chamber of a transwell, and the lower chamber was filled with IMDM containing agonist IGF-1.After 6 hrs, cells migrating into the lower chamber were counted using a hemacytometer. […]

T6 sequence (Q9Y243 whole entry): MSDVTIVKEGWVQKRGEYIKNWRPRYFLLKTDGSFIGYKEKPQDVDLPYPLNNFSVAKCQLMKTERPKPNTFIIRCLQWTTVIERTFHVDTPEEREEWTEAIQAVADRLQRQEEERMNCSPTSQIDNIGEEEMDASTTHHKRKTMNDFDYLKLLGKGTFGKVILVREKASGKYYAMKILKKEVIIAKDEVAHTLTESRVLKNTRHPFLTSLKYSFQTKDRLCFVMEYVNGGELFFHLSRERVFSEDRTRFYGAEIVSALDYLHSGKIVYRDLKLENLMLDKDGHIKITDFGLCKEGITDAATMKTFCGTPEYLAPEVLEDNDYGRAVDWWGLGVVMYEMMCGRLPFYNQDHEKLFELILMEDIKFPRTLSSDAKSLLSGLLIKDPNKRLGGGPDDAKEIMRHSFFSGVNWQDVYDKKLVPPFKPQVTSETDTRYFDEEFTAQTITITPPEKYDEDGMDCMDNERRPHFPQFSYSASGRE
T4 sequence (P31749 whole entry): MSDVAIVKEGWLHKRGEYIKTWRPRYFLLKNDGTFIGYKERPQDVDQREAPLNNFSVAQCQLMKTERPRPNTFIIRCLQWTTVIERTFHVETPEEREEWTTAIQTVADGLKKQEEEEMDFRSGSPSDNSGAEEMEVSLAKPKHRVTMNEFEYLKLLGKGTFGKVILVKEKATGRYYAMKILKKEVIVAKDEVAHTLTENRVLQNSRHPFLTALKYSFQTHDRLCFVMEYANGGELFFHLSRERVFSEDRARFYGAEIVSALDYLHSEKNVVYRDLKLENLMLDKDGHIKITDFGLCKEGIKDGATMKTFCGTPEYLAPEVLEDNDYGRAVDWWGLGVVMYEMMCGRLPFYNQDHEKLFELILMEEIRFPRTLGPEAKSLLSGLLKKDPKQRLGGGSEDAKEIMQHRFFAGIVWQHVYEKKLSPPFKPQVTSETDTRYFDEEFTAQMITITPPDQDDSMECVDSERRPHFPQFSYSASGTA
T8 sequence (P31751 whole entry): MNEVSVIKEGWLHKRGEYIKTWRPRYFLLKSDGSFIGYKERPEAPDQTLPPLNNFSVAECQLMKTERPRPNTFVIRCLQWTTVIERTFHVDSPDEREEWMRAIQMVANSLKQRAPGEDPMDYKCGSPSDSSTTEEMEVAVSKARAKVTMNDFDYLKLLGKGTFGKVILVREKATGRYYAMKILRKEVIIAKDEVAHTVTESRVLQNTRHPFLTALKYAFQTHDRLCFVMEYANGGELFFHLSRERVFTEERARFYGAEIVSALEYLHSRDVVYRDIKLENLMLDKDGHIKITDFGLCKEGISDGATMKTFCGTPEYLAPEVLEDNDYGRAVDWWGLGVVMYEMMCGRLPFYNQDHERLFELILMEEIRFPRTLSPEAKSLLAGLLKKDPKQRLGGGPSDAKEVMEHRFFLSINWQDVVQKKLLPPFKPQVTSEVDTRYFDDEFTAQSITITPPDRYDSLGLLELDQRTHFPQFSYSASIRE
T5 sequence (P42336 whole entry): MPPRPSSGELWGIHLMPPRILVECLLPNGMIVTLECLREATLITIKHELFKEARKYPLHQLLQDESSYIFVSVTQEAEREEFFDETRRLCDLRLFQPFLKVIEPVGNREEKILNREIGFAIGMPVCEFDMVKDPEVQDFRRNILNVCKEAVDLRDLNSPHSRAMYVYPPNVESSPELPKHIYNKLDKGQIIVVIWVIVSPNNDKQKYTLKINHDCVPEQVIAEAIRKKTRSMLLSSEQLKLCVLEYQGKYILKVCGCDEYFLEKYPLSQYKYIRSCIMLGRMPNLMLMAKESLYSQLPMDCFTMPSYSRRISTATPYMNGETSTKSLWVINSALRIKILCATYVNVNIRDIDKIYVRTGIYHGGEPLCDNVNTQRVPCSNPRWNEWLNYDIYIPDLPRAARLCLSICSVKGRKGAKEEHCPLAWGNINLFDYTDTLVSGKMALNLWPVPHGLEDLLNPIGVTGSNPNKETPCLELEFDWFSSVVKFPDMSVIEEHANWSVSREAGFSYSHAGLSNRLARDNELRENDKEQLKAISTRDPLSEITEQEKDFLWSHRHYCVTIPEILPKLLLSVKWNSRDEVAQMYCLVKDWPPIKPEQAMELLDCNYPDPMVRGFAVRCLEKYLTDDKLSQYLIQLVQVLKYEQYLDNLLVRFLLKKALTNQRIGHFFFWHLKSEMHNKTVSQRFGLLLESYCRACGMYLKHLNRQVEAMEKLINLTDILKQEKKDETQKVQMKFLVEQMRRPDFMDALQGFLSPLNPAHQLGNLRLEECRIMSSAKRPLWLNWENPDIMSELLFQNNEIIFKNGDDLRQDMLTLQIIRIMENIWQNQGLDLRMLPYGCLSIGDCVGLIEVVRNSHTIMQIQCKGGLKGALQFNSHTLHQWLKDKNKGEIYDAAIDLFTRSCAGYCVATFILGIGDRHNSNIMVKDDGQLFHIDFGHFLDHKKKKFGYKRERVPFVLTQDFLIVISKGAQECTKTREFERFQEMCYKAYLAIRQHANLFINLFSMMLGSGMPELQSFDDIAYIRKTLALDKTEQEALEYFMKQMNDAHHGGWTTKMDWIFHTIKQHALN
T5 sequence (P27986 whole entry partner): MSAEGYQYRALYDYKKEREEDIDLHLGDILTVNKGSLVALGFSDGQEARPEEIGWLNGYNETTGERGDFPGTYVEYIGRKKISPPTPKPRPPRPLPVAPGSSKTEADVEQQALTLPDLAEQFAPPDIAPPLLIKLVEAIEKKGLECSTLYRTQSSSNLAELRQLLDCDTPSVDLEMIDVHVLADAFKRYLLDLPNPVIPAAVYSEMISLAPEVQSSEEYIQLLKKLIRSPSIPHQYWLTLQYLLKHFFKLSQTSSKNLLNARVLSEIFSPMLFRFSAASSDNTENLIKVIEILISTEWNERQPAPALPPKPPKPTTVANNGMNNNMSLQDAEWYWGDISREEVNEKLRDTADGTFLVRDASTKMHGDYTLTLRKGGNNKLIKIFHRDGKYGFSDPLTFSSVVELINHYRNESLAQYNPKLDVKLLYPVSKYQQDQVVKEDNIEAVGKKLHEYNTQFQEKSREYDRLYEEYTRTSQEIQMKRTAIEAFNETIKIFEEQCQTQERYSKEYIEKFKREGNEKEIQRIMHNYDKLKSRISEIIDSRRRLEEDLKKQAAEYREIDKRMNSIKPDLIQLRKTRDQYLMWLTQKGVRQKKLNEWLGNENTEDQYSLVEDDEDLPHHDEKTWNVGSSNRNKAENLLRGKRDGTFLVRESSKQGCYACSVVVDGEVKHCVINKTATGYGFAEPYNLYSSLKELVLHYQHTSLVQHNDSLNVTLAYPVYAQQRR
T7 sequence (O00329 whole entry): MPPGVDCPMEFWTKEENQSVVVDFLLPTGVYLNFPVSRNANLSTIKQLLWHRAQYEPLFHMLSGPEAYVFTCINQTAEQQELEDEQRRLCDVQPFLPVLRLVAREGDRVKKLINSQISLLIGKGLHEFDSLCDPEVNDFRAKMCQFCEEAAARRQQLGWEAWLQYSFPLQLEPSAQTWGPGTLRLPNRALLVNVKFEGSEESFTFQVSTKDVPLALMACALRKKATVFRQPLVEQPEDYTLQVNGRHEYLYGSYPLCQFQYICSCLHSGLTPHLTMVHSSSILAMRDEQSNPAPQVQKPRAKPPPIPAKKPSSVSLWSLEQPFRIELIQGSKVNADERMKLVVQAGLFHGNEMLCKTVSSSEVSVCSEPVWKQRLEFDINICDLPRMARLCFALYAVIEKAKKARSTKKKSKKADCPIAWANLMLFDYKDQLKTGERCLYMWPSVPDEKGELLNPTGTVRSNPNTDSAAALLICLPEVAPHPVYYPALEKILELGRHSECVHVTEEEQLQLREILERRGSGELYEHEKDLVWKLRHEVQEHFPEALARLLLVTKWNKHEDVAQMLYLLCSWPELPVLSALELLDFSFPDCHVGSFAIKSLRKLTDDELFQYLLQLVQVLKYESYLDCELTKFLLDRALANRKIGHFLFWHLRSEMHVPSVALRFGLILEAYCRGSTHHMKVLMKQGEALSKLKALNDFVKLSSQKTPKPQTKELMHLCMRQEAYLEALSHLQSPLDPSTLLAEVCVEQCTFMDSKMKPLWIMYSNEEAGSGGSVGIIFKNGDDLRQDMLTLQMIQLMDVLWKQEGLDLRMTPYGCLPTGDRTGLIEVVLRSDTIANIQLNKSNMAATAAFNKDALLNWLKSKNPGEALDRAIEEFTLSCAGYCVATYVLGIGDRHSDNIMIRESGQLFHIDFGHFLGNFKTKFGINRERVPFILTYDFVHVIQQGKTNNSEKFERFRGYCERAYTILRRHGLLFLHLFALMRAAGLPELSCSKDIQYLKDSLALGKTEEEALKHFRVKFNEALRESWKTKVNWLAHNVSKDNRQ
T7 sequence (P27986 whole entry partner): as the sequence (P27986 whole entry partner) above

O=C1NC(=O)C(=CC=Cc2cccs2)C(=O)N1 [C96, 5-(3-(2-thienyl)-2-propen-1-ylidene)-2,4,6(1H,3H,5H)-pyrimidinetrione]
IC50 [1]: 134 µM
enzymatic activity mTOR ([2]; 300 μM): higher than 50%
mTOR catalytic activity ([2]; C96 1.00E-04 M): 101.78%
mTOR catalytic activity ([2]; C96 1.11E-05 M): 102.93%
mTOR catalytic activity ([2]; C96 1.23E-06 M): 99.81%
mTOR catalytic activity ([2]; C96 1.37E-07 M): 100.28%
mTOR catalytic activity ([2]; C96 1.52E-08 M): 96.95%
mTOR catalytic activity ([2]; C96 3.00E-04 M): 102.57%
mTOR catalytic activity ([2]; C96 3.33E-05 M): 100.02%
mTOR catalytic activity ([2]; C96 3.70E-06 M): 101.74%
mTOR catalytic activity ([2]; C96 4.12E-07 M): 99.37%
mTOR catalytic activity ([2]; C96 4.57E-08 M): 99.19%
IC50 mTOR ([2]; cell-free): not detectable
IC50 [3]: 116 µM
enzymatic activity AKT1 ([4]; 300 μM): higher than 50%
AKT1 catalytic activity ([4]; C96 1.00E-04 M): 89.13%
AKT1 catalytic activity ([4]; C96 1.11E-05 M): 104.72%
AKT1 catalytic activity ([4]; C96 1.23E-06 M): 101.71%
AKT1 catalytic activity ([4]; C96 1.37E-07 M): 102.27%
AKT1 catalytic activity ([4]; C96 1.52E-08 M): 94.32%
AKT1 catalytic activity ([4]; C96 3.00E-04 M): 57.61%
AKT1 catalytic activity ([4]; C96 3.33E-05 M): 100.86%
AKT1 catalytic activity ([4]; C96 3.70E-06 M): 110.72%
AKT1 catalytic activity ([4]; C96 4.12E-07 M): 99.76%
AKT1 catalytic activity ([4]; C96 4.57E-08 M): 103.80%
IC50 AKT1 ([4]; cell-free): not detectable
EC50 [5]: ~5 µM
IC50 [5]: 5.41 µM
enzymatic activity AKT3 ([6]; 300 μM): higher than 50%
AKT3 catalytic activity ([6]; C96 1.00E-04 M): 98.26%
AKT3 catalytic activity ([6]; C96 1.11E-05 M): 100.98%
AKT3 catalytic activity ([6]; C96 1.23E-06 M): 100.31%
AKT3 catalytic activity ([6]; C96 1.37E-07 M): 100.29%
AKT3 catalytic activity ([6]; C96 1.52E-08 M): 109.49%
AKT3 catalytic activity ([6]; C96 3.00E-04 M): 79.18%
AKT3 catalytic activity ([6]; C96 3.33E-05 M): 108.59%
AKT3 catalytic activity ([6]; C96 3.70E-06 M): 117.76%
AKT3 catalytic activity ([6]; C96 4.12E-07 M): 106.62%
AKT3 catalytic activity ([6]; C96 4.57E-08 M): 102.54%
IC50 AKT3 ([6]; cell-free): not detectable
EC50 [7]: ~5 µM
IC50 [7]: 7.05 µM
enzymatic activity AKT2 ([8]; 300 μM): higher than 50%
AKT2 catalytic activity ([8]; C96 1.11E-05 M): 102.16%
AKT2 catalytic activity ([8]; C96 1.23E-06 M): 97.18%
AKT2 catalytic activity ([8]; C96 1.37E-07 M): 97.27%
AKT2 catalytic activity ([8]; C96 1.52E-08 M): 95.67%
AKT2 catalytic activity ([8]; C96 3.00E-04 M): 86.10%
AKT2 catalytic activity ([8]; C96 3.33E-05 M): 100.38%
AKT2 catalytic activity ([8]; C96 3.70E-06 M): 102.25%
AKT2 catalytic activity ([8]; C96 4.12E-07 M): 100.48%
AKT2 catalytic activity ([8]; C96 4.57E-08 M): 100.26%
IC50 AKT2 ([8]; cell-free): not detectable
Annexin V/PI flow cytometry quadrant percentages [9]: 42.12% and 21.89%
Annexin V/PI flow cytometry quadrant percentages [10]: 4.28% and 1.91%
Annexin V/PI flow cytometry quadrant percentages [11]: 13.50% and 15.66%
IGF-1 stimulated MM cell growth [12]: suppressed
